According to patent US10029982B2, “Light absorptive compound, polymer composition containing the compound, polymer film, and cured layer” (Sumitomo Chemical Company, Limited, priority 2015, dated 2018):

Columns and labels:
[1] = Solubility test in various solvents; assay type: physicochemical; conditions: room temperature 25±3° C., visually confirmed 60 minutes after preparation; for Solubility in various solvents MEK: 2-butanone; for Solubility in various solvents IPA: 2-propanol; for Solubility in various solvents CHF: chloroform; for Solubility in various solvents EAC: ethyl acetate; for Solubility in various solvents PGMEA: propylene glycol monomethyl ether acetate; for Solubility in various solvents TOL: toluene
Protocol: The compound UVA-01 (50 mg) obtained by the method described in Synthesis Example 1 was mixed with 450 mg of the solvent described below to prepare a 10% by mass solution. […] Also, 50 mg of UVA-01 was mixed with 950 mg of the solvent described below to prepare a 5% by mass solution, and the same solubility test was performed. The solubility of the compound UVA-01 was visually confirmed in 60 minutes after preparation of each solution. Incidentally, the criteria for evaluation of the test results are as follows.
A: soluble by 10% by mass or more
B: soluble by 5% by mass or more and less than 10% by mass
C: soluble by less than 5% by mass
2-butanone (manufactured by KANTO CHEMICAL CO., INC., hereinafter abbreviated as MEK) 2-propanol (manufactured by NACALAI TESQUE, INC., hereinafter abbreviated as IPA) toluene (manufactured by NACALAI TESQUE, INC., hereinafter abbreviated as TOL) ethyl acetate (manufactured by NACALAI TESQUE, INC., hereinafter abbreviated as EAC) chloroform (manufactured by KANTO CHEMICAL CO., INC., hereinafter abbreviated as CHF) propylene glycol monomethyl ether acetate (manufactured by Tokyo Chemical Industry Co., Ltd., hereinafter abbreviated as PGMEA) The solubility test was performed in the same manner as in Example 1 except for replacing UVA-01 with UVA-02 or UVA-03.
The solubility test was performed in the same manner as in Example 1 except for replacing UVA-01 with UVA-R01.

[2] = Absorption measurement of the compound with spectrophotometer UV-3150; assay type: physicochemical; conditions: in 2-butanone
Excerpt: The compound (I) preferably satisfies the following formula (a). ε(420)/ε(400)≤0.4 (a)
The smaller value offers a transparent compound with less yellowness.
Also, the compound (I) preferably satisfies the following formulae (b) and (c) in addition to the formula (a). λmax<420 nm (b) ε(400)≥40 (c)
In the formula (b), λmax denotes maximum absorption wavelength of the compound (I). In the formula (c), ε(400) denotes gram absorption coefficient at a wavelength of 400 nm, and the unit of gram absorption coefficient is defined by L/(g·cm). […]
A compound UVA-R01 was synthesized in accordance with the method described in Patent Literature (DE101 09 243 A1). Refinement was performed by subjecting the solution to column chromatography (silica gel). When absorption maximum wavelength (λmax) was measured by using a spectrophotometer UV-3150 (manufactured by SHIMADZU CORPORATION), the results were such that λmax=389 nm (in 2-butanone), ε(400) was 146 L/(g·cm), and ε(420)/ε(400) was 0.0122. Then, the following peaks were observed through ^1H-NMR analysis, so that it was confirmed that the compound UVA-R01 was produced.

CCOC(=O)/C(C#N)=C\C=C1/CCCN1C [UVA-R01, reference compound]
Solubility in various solvents MEK [1]: C (soluble by less than 5% by mass) | Solubility in various solvents IPA [1]: C (soluble by less than 5% by mass) | Solubility in various solvents CHF [1]: C (soluble by less than 5% by mass) | Solubility in various solvents EAC [1]: C (soluble by less than 5% by mass) | Solubility in various solvents PGMEA [1]: C (soluble by less than 5% by mass) | Solubility in various solvents TOL [1]: C (soluble by less than 5% by mass) | absorption maximum wavelength (λmax) [2]: 389 nm | ε(400), gram absorption coefficient at a wavelength of 400 nm [2]: 146 L/g/cm | ε(420)/ε(400) [2]: 0.0122

CCCCC(CC)COC(=O)/C(C#N)=C\C=C1/CCCN1C (stereo not drawn) [UVA-03]
Solubility in various solvents MEK [1]: A (soluble by 10% by mass or more) | Solubility in various solvents IPA [1]: A (soluble by 10% by mass or more) | Solubility in various solvents CHF [1]: A (soluble by 10% by mass or more) | Solubility in various solvents EAC [1]: A (soluble by 10% by mass or more) | Solubility in various solvents PGMEA [1]: B (soluble by 5% by mass or more and less than 10% by mass) | Solubility in various solvents TOL [1]: A (soluble by 10% by mass or more) | absorption maximum wavelength (λmax) [2]: 389 nm | ε(400), gram absorption coefficient at a wavelength of 400 nm [2]: 108 L/g/cm | ε(420)/ε(400) [2]: 0.0132

CCOCCOC(=O)/C(C#N)=C\C=C1/CCCN1C [UVA-01]
Solubility in various solvents MEK [1]: A (soluble by 10% by mass or more) | Solubility in various solvents IPA [1]: A (soluble by 10% by mass or more) | Solubility in various solvents CHF [1]: A (soluble by 10% by mass or more) | Solubility in various solvents EAC [1]: A (soluble by 10% by mass or more) | Solubility in various solvents PGMEA [1]: A (soluble by 10% by mass or more) | Solubility in various solvents TOL [1]: A (soluble by 10% by mass or more) | absorption maximum wavelength (λmax) [2]: 389 nm | ε(400), gram absorption coefficient at a wavelength of 400 nm [2]: 125 L/g/cm | ε(420)/ε(400) [2]: 0.0153

COCCOCCOCCOC(=O)/C(C#N)=C\C=C1/CCCN1C [UVA-02]
Solubility in various solvents MEK [1]: A (soluble by 10% by mass or more) | Solubility in various solvents IPA [1]: A (soluble by 10% by mass or more) | Solubility in various solvents CHF [1]: A (soluble by 10% by mass or more) | Solubility in various solvents EAC [1]: A (soluble by 10% by mass or more) | Solubility in various solvents PGMEA [1]: A (soluble by 10% by mass or more) | Solubility in various solvents TOL [1]: A (soluble by 10% by mass or more) | absorption maximum wavelength (λmax) [2]: 388 nm | ε(400), gram absorption coefficient at a wavelength of 400 nm [2]: 95.2 L/g/cm | ε(420)/ε(400) [2]: 0.0161
